Results as given in EP1900728A1 (Genecare Research Institute Co., Ltd, priority 2005, dated 2006).
Read-outs that look alike come from different tables or passages of the source.

What was measured:
[1] = target: T1, IκBα ubiquitinating enzyme (SCF complex: ROC1, Cullin1, Skp1, His-TrCP1; with E1, UbcH5b) (Homo sapiens, UniProt P62877+P63208+Q13616+Q9Y297); experiment: Measurement of ubiquitinating enzyme activity (IκBα ubiquitination, time-resolved fluorescence with Eu(K)-labeled ubiquitin and XL665-labeled anti-GST antibody); format: biochemical
T1 construct: His (polyhistidine); made in house; host or cells: insect cells (baculovirus) for the SCF complex and His-E1; E. coli for His-UBCH5b
T1 sequence (Q9Y297 whole entry): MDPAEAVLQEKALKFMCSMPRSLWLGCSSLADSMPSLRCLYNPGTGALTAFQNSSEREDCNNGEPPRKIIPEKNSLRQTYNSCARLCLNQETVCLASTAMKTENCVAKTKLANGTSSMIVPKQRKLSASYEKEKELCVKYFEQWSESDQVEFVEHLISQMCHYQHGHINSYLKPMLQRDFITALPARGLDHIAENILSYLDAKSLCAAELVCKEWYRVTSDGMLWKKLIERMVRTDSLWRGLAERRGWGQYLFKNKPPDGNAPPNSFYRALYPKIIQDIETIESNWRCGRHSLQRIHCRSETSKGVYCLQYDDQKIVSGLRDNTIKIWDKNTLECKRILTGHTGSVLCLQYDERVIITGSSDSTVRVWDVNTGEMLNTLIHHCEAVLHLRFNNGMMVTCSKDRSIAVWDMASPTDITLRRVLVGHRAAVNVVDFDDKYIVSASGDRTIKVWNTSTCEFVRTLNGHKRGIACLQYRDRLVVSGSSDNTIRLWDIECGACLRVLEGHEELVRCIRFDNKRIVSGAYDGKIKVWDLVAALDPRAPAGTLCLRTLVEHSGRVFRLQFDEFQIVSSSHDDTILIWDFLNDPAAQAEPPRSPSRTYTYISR
T1 sequence (Q13616 whole entry): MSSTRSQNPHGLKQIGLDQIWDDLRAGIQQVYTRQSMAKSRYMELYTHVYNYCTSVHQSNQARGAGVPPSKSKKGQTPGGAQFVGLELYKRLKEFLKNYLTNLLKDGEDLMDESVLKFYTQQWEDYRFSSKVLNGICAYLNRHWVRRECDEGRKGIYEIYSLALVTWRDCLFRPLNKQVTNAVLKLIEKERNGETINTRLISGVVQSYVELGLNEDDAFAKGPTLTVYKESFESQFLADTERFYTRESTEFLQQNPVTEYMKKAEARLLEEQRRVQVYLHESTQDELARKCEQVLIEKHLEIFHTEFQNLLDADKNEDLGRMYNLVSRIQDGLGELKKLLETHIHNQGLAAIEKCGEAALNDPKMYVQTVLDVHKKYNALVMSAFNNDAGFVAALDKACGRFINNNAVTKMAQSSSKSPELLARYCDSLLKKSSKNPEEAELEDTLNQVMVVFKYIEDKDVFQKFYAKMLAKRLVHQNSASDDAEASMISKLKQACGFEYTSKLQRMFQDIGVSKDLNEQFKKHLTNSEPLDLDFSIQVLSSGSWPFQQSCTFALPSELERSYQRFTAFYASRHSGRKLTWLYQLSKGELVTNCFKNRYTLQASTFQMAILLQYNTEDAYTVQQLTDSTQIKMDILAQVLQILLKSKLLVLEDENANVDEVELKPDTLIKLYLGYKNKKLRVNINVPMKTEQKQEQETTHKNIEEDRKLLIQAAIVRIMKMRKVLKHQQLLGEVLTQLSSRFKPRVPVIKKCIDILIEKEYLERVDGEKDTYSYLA
T1 sequence (P63208 whole entry): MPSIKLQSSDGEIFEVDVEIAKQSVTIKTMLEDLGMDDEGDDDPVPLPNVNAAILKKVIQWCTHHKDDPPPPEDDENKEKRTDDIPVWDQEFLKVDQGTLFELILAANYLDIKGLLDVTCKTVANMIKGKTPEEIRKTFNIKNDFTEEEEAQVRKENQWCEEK
T1 sequence (P62877 whole entry): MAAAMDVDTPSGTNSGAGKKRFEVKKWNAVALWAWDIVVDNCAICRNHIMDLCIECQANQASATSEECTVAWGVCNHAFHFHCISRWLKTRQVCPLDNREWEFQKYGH
Outline: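 Human SCF complex with E1 and UbcH5b ubiquitinated GST-IκBα pre-phosphorylated by IKKβ (2 mM ATP, pH 7.4, 1 h, RT), with Eu(K)-ubiquitin, 30 min RT. Stopped with EDTA, XL665 anti-GST added for 2 h; 665/620 nm TR-FRET ratio. % inhibition versus no-compound control and no-SCF blank gave IC50.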

[2] = tested on: ICAM-1 expression in HT-29 cells; experiment: Measurement of ICAM-1 expressing activity (TNFα-induced ICAM-1 expression, cell ELISA); format: cell-based; conditions: Homo sapiens, Table 6, cell activity inhibition test by method (3), read-out: EVALUATION (IC50 class, inhibition of cell activity)
Experimental: Method 2: Measurement of ICAM-1 expressing activity
2.0 x 10^4 HT-29 cells (ATCC) were plated onto a 96-well plate, and the cells were cultured for 48 hours using a McCoy' 5A medium (GIBCO) containing 10% inactivated fetal calf serum. The culture medium was removed, a culture medium containing a compound to be evaluated (final DMSO concentration of 0.5%) was added, and this was incubated at 37°C for 30 minutes. Thirty ng/mL of human TNFα (GIBCO) was added, and this was incubated at 37°C for 4 hours. After washing once with a washing solution (PBS containing 0.05% Tween 20), ice-cooled methanol was added, and this was left on ice for 10 minutes and then fixed. After removing methanol, PBS containing 1% BSA was added, and blocking was performed by letting this stand at room temperature for 30 minutes. Anti-ICAM-1 antibody (Santa Cruz Biotechnology) was added, and this was left to stand at room temperature for 1 hour. After washing with the washing solution, POD-labeled secondary antibody was added, and this was left to stand at room temperature for 30 minutes. This was washed, 100 µL of 100 mM citric acid buffer (pH4.2) containing 1 mM TMBZ and 0.03% H2O2 was added, and this was reacted at room temperature for 15 minutes. The reaction was terminated with 100 µL of 2 N H2SO4, and the absorbance at 450 nm was measured using ARVO-HTS (Perkin Elmer).
When cells are stimulated with TNFα, IκBα is degraded after ubiquitination resulting in the activation of NFκB and the promotion of the expression of adhesion factor ICAM-1. Therefore, the suppression of ICAM-1 expression described above serves as an indicator to determine the effectiveness of the compound in the cells.

[3] = enzyme activity inhibition test, method (1), Table 5, read-out: EVALUATION

Q: `CC1=NN(c2ccc(C(=O)O)cc2)C(=O)/C1=C\c1ccc(OCC(=O)N2CCCCC2)cc1` [Compound 533] was tested. Which IC50 [1, 3] did it give?
A: Its IC50 is under 10 µM.

Q: And the IC50 [2]?
A: Its IC50 is 10 to 20 µM.

Q: Which IC50 [1, 3] does the source give for `COc1cc(/C=C2\C(=O)N(c3ccc(C(=O)O)cc3)N=C2C)ccc1OCC1CC1` [Compound 390] here?
A: Its IC50 is under 10 µM.

Q: And the IC50 [2]?
A: The IC50 was 10 to 20 µM.

Q: `CCOC(=O)COc1ccc(C=C2C(=O)N(c3ccc(S(N)(=O)=O)cc3)N=C2C)cc1` [Compound 215] was tested. Which IC50 [1] did it give?
A: Its IC50 is 10 to 20 µM.

Q: What about the IC50 [2] of the same compound?
A: The IC50 was 10 to 20 µM.

Q: Which IC50 [1, 3] does the source give for `CC1=NN(c2ccccc2)C(=O)/C1=C\c1ccc(N2CCNCC2)cc1` [Compound 200] here?
A: Its IC50 is 10 to 20 µM.

Q: And the IC50 [2]?
A: Its IC50 is under 40 µM.

Q: With `CCCCC1=NN(c2cccc(C(=O)O)c2)C(=O)/C1=C\c1ccc2[nH]ccc2c1` [Compound 481] as the compound, how does the IC50 [1, 3] read?
A: The IC50 was under 10 µM.

Q: What about the IC50 [2] of the same compound?
A: The IC50 was under 40 µM.

Q: `CC1=NN(c2cccc(C(=O)O)c2)C(=O)/C1=C\c1ccc2c(ccn2Cc2ccccc2)c1` [Compound 494] was tested. Which IC50 [1, 3] did it give?
A: The IC50 was under 10 µM.

Q: And the IC50 [2]?
A: Its IC50 is under 40 µM.

Q: How did the IC50 [1, 3] turn out when `COc1cc(/C=C2\C(=O)N(c3ccc(C(=O)O)cc3)N=C2Cc2ccccc2)ccc1OCc1ccccc1` [Compound 265] was run?
A: Its IC50 is 10 to 20 µM.

Q: What about the IC50 [2] of the same compound?
A: Its IC50 is 10 to 20 µM.

Q: For `CC1=NN(c2cccc(C(=O)O)c2)C(=O)/C1=C\c1ccc2c(ccn2C(=O)c2cccn2C)c1` [Compound 532], which IC50 [1, 3] is on record?
A: Its IC50 is under 10 µM.

Q: And the IC50 [2]?
A: Its IC50 is under 40 µM.

Q: What does the source list for `CC1=NN(c2cccc(S(N)(=O)=O)c2)C(=O)C1=Cc1ccc(N2CCN(C(=O)OC(C)(C)C)CC2)cc1` [Compound 180]?
A: IC50 [1]: 10 to 20 µM; IC50 [2]: < 40 µM

Q: For `COCC1=NN(Cc2cccc(O)c2)C(=O)/C1=C\c1ccc(-c2ccccc2F)o1` [Compound 190], which IC50 [1, 3] is on record?
A: The IC50 was 10 to 20 µM.

Q: What about the IC50 [2] of the same compound?
A: Its IC50 is 10 to 20 µM.

Q: How did the IC50 [1, 3] turn out when `CC1=NN(c2ccc(S(N)(=O)=O)cc2)C(=O)/C1=C\c1ccc(-n2cccn2)cc1` [Compound 150] was run?
A: The IC50 was under 10 µM.

Q: What about the IC50 [2] of the same compound?
A: The IC50 was under 10 µM.

Q: For `COCC1=NN(c2ccccc2)C(=O)/C1=C\c1ccc2ccccc2c1` [Compound 2], which IC50 [1, 3] is on record?
A: Its IC50 is 10 to 20 µM.

Q: And the IC50 [2]?
A: The IC50 was 10 to 20 µM.

Q: For `CC1=NN(c2ccc(S(N)(=O)=O)cc2)C(=O)/C1=C\c1ccc(OCC(N)=O)cc1` [Compound 208], which IC50 [1, 3] is on record?
A: The IC50 was under 10 µM.

Q: What about the IC50 [2] of the same compound?
A: The IC50 was under 40 µM.

Q: For `CC1=NN(c2ccc(C(=O)O)cc2)C(=O)C1=Cc1ccc(OCCCN(C)C)cc1` [Compound 543], which IC50 [1] is on record?
A: Its IC50 is under 10 µM.

Q: And the IC50 [2]?
A: Its IC50 is under 10 µM.

Q: Which IC50 [1, 3] does the source give for `O=C(O)c1ccc(N2N=C(c3ccoc3)/C(=C/c3ccc(-c4ccccc4F)o3)C2=O)cc1` [Compound 246] here?
A: Its IC50 is under 10 µM.

Q: What about the IC50 [2] of the same compound?
A: Its IC50 is under 10 µM.

Q: For `COC(=O)c1ccc(COc2ccc(/C=C3\C(=O)N(c4ccc(S(N)(=O)=O)cc4)N=C3C)cc2OC)cc1` [Compound 120], which IC50 [1, 3] is on record?
A: The IC50 was under 10 µM.

Q: And the IC50 [2]?
A: The IC50 was under 40 µM.

Q: With `CC1=NN(c2ccc(S(N)(=O)=O)cc2)C(=O)C1=Cc1ccc(NC(=O)c2ccc(F)cc2)cc1` [Compound 226] as the compound, how does the IC50 [1] read?
A: The IC50 was under 10 µM.

Q: And the IC50 [2]?
A: The IC50 was 10 to 20 µM.

Q: How did the IC50 [1, 3] turn out when `CC1=NN(c2ccc(C(=O)O)cc2)C(=O)/C1=C\c1ccc(-n2cncn2)cc1` [Compound 262] was run?
A: The IC50 was under 10 µM.

Q: What about the IC50 [2] of the same compound?
A: Its IC50 is 10 to 20 µM.

Q: Which IC50 [1, 3] does the source give for `COCC1=NN(c2ccc(C(=O)O)cc2)C(=O)/C1=C\c1ccc2c(c1)OCO2` [Compound 464] here?
A: Its IC50 is 10 to 20 µM.

Q: What about the IC50 [2] of the same compound?
A: The IC50 was under 40 µM.

Q: Which IC50 [1] does the source give for `CC1=NN(c2ccc(S(N)(=O)=O)cc2)C(=O)C1=Cc1ccc(NC(=O)c2ccc3ccccc3c2)cc1` [Compound 227] here?
A: Its IC50 is under 10 µM.

Q: And the IC50 [2]?
A: Its IC50 is 10 to 20 µM.

Q: `CC1=NN(c2ccc(C(=O)O)cc2)C(=O)/C1=C\c1ccc(N2CCCC2)cc1` [Compound 256] was tested. Which IC50 [1, 3] did it give?
A: The IC50 was 10 to 20 µM.

Q: And the IC50 [2]?
A: Its IC50 is under 40 µM.

Q: What does the source list for `CC1=NN(c2ccc(C(=O)O)cc2)C(=O)/C1=C\c1ccc(CO)o1` [Compound 255]?
A: IC50 [1, 3]: < 10 µM; IC50 [2]: 10 to 20 µM

Q: With `CC1=NN(c2ccc(C(=O)O)cc2)C(=O)/C1=C\c1ccc(Oc2ccccc2)cc1` [Compound 539] as the compound, how does the IC50 [1, 3] read?
A: Its IC50 is under 10 µM.

Q: What about the IC50 [2] of the same compound?
A: Its IC50 is under 10 µM.

Q: Which IC50 [1, 3] does the source give for `O=C1/C(=C\c2ccc3ccccc3c2)C(C2CC2)=NN1c1ccccc1` [Compound 70] here?
A: The IC50 was 10 to 20 µM.

Q: What about the IC50 [2] of the same compound?
A: Its IC50 is under 40 µM.

Q: How did the IC50 [1, 3] turn out when `CC1=NN(c2ccc(C(=O)O)cc2)C(=O)/C1=C\c1ccc(-c2cccc(Cl)c2)o1` [Compound 454] was run?
A: The IC50 was under 10 µM.

Q: And the IC50 [2]?
A: The IC50 was under 40 µM.

Q: `CCCCC1=NN(c2cccc(C(=O)O)c2)C(=O)/C1=C\c1ccc2c(c1)OCO2` [Compound 473] was tested. Which IC50 [1, 3] did it give?
A: The IC50 was 10 to 20 µM.

Q: What about the IC50 [2] of the same compound?
A: Its IC50 is under 40 µM.
